A value given as a limit tells only on which side of the number the result lay.

The target in series [1] is Sodium-dependent serotonin transporter (Homo sapiens, UniProt P31645). Briefly: Inhibition of [3H]5HT reuptake at human serotonin transporter expressed in HEK293 cells by scintillation counting. Format: cell-based.
The target of series [2] is Sodium-dependent dopamine transporter (Homo sapiens, UniProt Q01959). Briefly: Inhibition of [3H]DA reuptake at human dopamine transporter expressed in HEK293 cells by scintillation counting. Format: cell-based.
Sequence of Sodium-dependent dopamine transporter (Q01959 whole entry): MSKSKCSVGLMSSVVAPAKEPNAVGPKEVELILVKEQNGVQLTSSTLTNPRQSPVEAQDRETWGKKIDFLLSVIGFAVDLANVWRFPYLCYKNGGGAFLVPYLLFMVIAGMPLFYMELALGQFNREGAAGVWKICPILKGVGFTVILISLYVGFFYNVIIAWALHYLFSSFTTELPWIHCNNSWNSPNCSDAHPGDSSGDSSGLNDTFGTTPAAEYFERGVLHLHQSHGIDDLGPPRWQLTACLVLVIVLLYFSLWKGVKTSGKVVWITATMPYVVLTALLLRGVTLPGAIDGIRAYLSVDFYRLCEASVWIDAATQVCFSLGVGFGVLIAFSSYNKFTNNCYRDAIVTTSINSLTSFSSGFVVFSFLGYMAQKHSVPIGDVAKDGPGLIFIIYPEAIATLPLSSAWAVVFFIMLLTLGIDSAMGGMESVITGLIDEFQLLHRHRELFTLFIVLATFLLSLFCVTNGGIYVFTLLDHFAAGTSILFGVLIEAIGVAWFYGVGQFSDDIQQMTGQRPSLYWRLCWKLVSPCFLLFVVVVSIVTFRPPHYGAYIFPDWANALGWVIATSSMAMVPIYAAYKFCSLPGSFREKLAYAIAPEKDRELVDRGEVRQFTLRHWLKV
A short description of series [3]: Distribution coefficient, log D at pH 7.4. Format: physicochemical. Conditions: octanol/water; call rule not given here.
The nature of series [4]: Metabolic stability assessed as half life in human liver microsomes. Format: ADME, Microsome. A general note: Liver microsomes are a subcellular fraction often used to study metabolism.
The next series concerns the target Cytochrome P450 2D6 (Homo sapiens, UniProt P10635). Description: Inhibition of CYP2D6. Format: ADME.
Series [5] has as its target Voltage-gated inwardly rectifying potassium channel KCNH2 (Homo sapiens, UniProt Q12809). Description: Inhibition of human ERG potassium channel.
The target in series [6] is Sodium-dependent noradrenaline transporter (Homo sapiens, UniProt P23975).
Sequence of Sodium-dependent noradrenaline transporter (P23975 whole entry): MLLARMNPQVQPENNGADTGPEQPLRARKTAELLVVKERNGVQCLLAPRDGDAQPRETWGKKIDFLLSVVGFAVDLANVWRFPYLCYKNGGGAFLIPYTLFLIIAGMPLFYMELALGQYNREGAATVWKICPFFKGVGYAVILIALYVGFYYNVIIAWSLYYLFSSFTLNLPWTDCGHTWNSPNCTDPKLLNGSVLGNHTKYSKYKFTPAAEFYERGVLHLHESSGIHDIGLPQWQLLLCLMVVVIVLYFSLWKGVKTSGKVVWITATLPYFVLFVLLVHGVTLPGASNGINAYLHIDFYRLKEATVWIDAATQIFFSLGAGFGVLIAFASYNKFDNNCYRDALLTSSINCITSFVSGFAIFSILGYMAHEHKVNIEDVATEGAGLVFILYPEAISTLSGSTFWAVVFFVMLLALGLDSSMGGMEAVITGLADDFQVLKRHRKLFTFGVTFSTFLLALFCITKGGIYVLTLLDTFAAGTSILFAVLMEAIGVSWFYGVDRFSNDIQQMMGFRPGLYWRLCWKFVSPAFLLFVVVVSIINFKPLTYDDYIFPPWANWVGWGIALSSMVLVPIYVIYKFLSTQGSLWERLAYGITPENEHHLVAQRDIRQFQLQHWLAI
Description: Inhibition of [3H]NA reuptake in human noradrenaline transporter expressed in HEK293 cells by scintillation counting
The nature of a further series: in vitro. Conditions: human, hepatocytes.
Series [7] is described as follows: Dissociation constant, pKa of the compound. Format: physicochemical.
The target of the next series is T1, Cytochrome P450 1A2 (Homo sapiens, UniProt P05177).
T1 sequence (P05177 whole entry): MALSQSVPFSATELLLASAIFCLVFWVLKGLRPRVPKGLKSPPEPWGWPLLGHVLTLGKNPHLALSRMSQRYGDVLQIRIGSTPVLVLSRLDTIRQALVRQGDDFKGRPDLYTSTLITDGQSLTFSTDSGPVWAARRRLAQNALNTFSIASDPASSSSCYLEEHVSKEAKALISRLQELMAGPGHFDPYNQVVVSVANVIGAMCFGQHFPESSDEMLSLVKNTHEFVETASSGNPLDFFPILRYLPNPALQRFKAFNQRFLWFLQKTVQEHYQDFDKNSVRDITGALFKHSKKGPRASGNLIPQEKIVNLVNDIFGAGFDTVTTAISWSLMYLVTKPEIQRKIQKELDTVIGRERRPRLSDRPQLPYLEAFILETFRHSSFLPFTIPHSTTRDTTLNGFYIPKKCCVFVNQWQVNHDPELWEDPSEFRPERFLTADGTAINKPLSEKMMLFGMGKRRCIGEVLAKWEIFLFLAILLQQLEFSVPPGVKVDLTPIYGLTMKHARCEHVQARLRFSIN
Briefly: Inhibition of CYP1A2. Format: ADME.

Another series addresses Cytochrome P450 2C9 (Homo sapiens, UniProt P11712). Description: Inhibition of CYP2C9. Format: ADME.
A further series addresses Cytochrome P450 2C19 (Homo sapiens, UniProt P33261). Description: Inhibition of CYP2C19. Format: ADME.
The target of the next series is Cytochrome P450 3A4 (Homo sapiens, UniProt P08684). Description: Inhibition of CYP3A4. Format: ADME.
Sequence of Cytochrome P450 3A4 (P08684 whole entry): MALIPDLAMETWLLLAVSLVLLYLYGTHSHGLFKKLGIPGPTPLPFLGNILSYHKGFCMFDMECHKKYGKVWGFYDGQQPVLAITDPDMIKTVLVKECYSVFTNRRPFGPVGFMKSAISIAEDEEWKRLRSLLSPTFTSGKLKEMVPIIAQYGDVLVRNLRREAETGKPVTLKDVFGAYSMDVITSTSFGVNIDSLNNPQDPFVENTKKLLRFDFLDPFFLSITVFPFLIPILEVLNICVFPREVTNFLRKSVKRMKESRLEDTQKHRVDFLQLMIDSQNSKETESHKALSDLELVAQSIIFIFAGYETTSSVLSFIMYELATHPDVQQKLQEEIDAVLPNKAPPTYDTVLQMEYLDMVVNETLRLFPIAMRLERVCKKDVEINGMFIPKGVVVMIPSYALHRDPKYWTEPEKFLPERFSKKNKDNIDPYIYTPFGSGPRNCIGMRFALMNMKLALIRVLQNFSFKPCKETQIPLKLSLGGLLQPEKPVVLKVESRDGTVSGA
A short description of series [8]: Half life in dog at 0.01 mg/kg, iv. Format: ADME, organism-based, Canis lupus familiaris. Also noted: dose 0.01 mg/kg, route intravenous. Conditions: in vivo.
A short description of series [9]: Clearance in dog at 0.01 mg/kg, iv. Format: ADME, organism-based, Canis lupus familiaris. Also on record: dose 0.01 mg/kg, route intravenous. The following applies: in vivo.
Series [10] is described as follows: Volume of distribution in dog at 0.01 mg/kg, iv. Conditions: in vivo. Also noted: dose 0.01 mg/kg, route intravenous. Format: ADME, organism-based, Canis lupus familiaris.
A short description of series [11]: Half life in dog at 0.013 mg/kg, po. Format: ADME, organism-based, Canis lupus familiaris. Also noted: dose 0.013 mg/kg, route oral. Conditions: in vivo.
Series [12] can be described thus: Bioavailability in dog at 0.013 mg/kg, po. Format: ADME, organism-based, Canis lupus familiaris. The following applies: in vivo.
Series [13] in a line: Metabolic stability assessed as half life in dog liver microsomes. Format: ADME, Canis lupus familiaris, Microsome.

Sequence of Sodium-dependent serotonin transporter (P31645 whole entry): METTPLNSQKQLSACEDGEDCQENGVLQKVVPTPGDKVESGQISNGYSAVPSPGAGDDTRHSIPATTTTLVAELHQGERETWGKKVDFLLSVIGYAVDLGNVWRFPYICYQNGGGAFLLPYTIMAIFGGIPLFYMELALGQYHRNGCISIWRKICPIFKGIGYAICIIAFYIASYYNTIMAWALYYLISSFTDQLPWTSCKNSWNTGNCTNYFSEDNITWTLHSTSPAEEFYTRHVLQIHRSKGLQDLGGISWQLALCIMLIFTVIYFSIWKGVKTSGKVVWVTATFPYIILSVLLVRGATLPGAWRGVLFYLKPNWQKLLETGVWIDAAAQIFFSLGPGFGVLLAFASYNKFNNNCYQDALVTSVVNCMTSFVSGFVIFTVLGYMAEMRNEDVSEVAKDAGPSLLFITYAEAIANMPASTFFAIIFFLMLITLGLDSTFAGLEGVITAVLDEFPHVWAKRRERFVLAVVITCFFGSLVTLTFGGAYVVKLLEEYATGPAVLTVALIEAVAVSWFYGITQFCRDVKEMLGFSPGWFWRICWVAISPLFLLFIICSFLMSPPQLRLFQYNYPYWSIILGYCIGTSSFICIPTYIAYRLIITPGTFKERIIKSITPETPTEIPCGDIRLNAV
Sequence of Voltage-gated inwardly rectifying potassium channel KCNH2 (Q12809 whole entry): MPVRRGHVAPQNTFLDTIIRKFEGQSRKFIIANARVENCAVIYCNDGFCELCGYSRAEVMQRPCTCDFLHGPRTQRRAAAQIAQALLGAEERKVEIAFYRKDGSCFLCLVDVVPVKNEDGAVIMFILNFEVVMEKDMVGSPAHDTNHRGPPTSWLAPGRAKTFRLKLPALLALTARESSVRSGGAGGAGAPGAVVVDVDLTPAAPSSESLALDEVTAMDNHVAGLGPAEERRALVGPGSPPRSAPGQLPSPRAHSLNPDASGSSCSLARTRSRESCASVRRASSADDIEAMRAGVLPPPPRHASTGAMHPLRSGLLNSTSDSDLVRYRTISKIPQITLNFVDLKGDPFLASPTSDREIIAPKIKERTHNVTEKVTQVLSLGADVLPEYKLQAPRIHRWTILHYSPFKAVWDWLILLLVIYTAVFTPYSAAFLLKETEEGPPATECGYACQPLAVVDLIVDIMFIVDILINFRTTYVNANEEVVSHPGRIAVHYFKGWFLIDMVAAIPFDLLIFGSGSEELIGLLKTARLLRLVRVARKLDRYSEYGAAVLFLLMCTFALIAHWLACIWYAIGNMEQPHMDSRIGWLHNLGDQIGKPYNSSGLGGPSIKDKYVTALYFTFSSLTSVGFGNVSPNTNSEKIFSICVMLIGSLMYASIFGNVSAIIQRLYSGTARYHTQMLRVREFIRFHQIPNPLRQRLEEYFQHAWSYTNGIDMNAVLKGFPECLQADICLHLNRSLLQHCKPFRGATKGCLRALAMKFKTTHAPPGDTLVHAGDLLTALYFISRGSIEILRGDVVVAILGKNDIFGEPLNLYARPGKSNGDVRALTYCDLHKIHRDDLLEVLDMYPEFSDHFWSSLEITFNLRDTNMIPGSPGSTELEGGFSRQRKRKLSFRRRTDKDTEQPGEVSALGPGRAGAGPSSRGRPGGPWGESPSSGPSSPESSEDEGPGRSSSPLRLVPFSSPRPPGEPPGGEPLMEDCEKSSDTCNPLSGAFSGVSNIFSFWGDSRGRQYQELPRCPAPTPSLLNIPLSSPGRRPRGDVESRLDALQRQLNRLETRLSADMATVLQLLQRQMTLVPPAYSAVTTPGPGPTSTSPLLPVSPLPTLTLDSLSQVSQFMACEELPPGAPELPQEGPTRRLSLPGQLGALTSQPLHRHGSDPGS
Sequence of Cytochrome P450 2D6 (P10635 whole entry): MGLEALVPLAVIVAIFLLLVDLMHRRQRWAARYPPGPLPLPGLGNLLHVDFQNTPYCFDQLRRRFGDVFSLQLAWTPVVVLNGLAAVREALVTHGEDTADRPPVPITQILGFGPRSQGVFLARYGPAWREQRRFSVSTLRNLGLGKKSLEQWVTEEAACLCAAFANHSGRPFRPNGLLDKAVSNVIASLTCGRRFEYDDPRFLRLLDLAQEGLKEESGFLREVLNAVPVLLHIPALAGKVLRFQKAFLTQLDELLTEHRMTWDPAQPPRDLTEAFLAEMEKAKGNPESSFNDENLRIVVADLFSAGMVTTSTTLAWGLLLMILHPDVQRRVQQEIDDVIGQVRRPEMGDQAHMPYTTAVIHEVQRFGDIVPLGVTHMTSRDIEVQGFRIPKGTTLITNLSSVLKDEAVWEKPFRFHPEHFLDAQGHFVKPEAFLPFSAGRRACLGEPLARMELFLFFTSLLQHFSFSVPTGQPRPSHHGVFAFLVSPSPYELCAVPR
Sequence of Cytochrome P450 2C9 (P11712 whole entry): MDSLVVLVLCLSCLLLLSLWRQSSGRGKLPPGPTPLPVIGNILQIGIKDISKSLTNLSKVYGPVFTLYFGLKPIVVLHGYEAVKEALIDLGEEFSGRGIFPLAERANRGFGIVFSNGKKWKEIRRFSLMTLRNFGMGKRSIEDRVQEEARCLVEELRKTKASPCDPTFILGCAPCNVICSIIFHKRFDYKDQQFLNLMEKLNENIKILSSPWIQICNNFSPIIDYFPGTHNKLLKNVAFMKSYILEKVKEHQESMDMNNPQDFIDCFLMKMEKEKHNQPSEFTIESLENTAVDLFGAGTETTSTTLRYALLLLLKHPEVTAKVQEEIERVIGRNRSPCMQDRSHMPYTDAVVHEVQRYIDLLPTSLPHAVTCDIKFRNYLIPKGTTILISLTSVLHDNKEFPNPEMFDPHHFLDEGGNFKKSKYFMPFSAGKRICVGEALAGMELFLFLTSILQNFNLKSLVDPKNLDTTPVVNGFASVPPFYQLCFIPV
Sequence of Cytochrome P450 2C19 (P33261 whole entry): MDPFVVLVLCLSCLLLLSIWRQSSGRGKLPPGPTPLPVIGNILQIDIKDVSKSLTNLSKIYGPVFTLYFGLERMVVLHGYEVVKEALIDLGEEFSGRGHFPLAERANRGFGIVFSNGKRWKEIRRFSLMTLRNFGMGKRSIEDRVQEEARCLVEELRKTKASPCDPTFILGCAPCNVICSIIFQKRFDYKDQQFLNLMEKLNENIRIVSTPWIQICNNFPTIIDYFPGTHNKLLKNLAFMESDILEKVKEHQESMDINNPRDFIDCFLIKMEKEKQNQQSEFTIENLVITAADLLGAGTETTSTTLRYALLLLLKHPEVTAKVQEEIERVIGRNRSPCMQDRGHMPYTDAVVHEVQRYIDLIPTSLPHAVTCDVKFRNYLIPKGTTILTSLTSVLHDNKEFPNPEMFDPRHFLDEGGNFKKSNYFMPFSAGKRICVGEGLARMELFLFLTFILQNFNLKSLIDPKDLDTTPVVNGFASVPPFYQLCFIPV
Description for in vitro: Intrinsic clearance in human hepatocytes assessed per million cells

The IC50 is the concentration that gives 50% inhibition. A low value points to inhibition by little substance. What is called logD is the decadic logarithm of the distribution of all forms, ionised or not, between an organic phase and buffer at a given pH. Lower therefore signals a more hydrophilic compound. In general, half-life refers to how long it takes for the measured level to halve. The term hepatocyte CLint denotes a measure of how fast metabolising enzymes remove a compound, apart from limits set by blood flow. As to `CC(C)C(=O)N(Cc1ccc(Cl)cc1Cl)[C@H]1CCNC1`, the IC50 is 13 nM in [1]; more than 40000 nM in series [2]; 21800 nM on Cytochrome P450 2D6; 40200 nM in series [5]; 28 nM in [6]. For the same molecule, the logD in series [3] came out at 0.8. Further, the half-life in series [4] was more than 2 h. This molecule showed a hepatocyte CLint in the series “in vitro” of 4.8 µL/min/1e6 cells.
With `CC(C)(C)CC(=O)N(Cc1ccc(Cl)cc1Cl)[C@H]1CCNC1`, the IC50 in series [1] turned out to be 27 nM; in [2] it was 10200 nM; in [6], 39 nM.
Consider `CC(C)C(=O)N(Cc1ccc(F)cc1F)[C@H]1CCNC1`, for which the IC50 in series [1] and in series [6] was more than 400 nM in each case.
In the case of `CC(C)C(=O)N(Cc1ccccc1-c1ccccc1)[C@H]1CCNC1`, the 50% inhibitory concentration (IC50) in series [1] is more than 400 nM; in [6], 14 nM.
As to `O=C(c1ccccc1)N(Cc1ccc(Cl)cc1Cl)[C@H]1CCNC1`, the IC50 in series [1] amounted to 195 nM; in series [6], 94 nM.
The corresponding values for `CC(C)C(=O)N(Cc1ccc(F)cc1Cl)[C@H]1CCNC1` are 161 nM and 98 nM.
In the case of `CC(C)(C)C(=O)N(Cc1cccc(Cl)c1Cl)[C@H]1CCNC1`, the IC50 in series [1] is 26 nM; in [6] it was more than 322 nM.
For `CC(C)CC(=O)N(Cc1cccc(Cl)c1Cl)[C@H]1CCNC1` the same measures were 17 nM and 62 nM.
The corresponding values for `CCC(=O)N(Cc1ccc(Cl)cc1Cl)[C@H]1CCNC1` are 25 nM and 60 nM.
`CC(C)C(=O)N(Cc1cc(Cl)cc(Cl)c1Cl)[C@H]1CCNC1`: the half-inhibitory concentration (IC50) in series [1] came out at 44 nM; in [2], 21600 nM; in series [6], 29 nM.
For the molecule `CC(C)C(=O)N(Cc1ccc(Cl)c(Cl)c1Cl)[C@H]1CCNC1`, the IC50 in series [1] is 5 nM; in [2] it was 5870 nM; against Cytochrome P450 2D6, 17600 nM; in series [5], more than 6870 nM; in series [6] it was 16 nM. Besides, the logD in series [3] was determined as 1.3. Also, the half-life in series [4] is more than 2 h. Further, the hepatocyte CLint in “in vitro” was determined as 8.8 µL/min/1e6 cells.
For the molecule `CC(C)(C)C(=O)N(Cc1ccc(Cl)cc1Cl)[C@H]1CCNC1`, the IC50 stood at 41 nM in series [1] and 92 nM in [6].
For `CCCCC(=O)N(Cc1ccc(Cl)cc1Cl)[C@H]1CCNC1` the same measures were 33 nM and 70 nM.
The pKa is the pH at which an ionisable group is half protonated. Low readings indicate a stronger acid or weaker base, high ones a weaker acid or stronger base. As usually defined, the clearance is the volume of plasma or blood freed of the substance per unit of time. Lower therefore signals inefficient removal. As a reminder, the Vd is the apparent volume that relates the amount in the body to the concentration in plasma or blood. For orientation: bioavailability means the share of a dose that reaches the circulation, judged against a reference dose that is usually intravenous. Read a low bioavailability as poor availability. As to `CC(C)C(=O)N(Cc1cccc(Cl)c1Cl)[C@H]1CCNC1`, the concentration for half-maximal inhibition (IC50) in series [2] worked out at 1270 nM; against Cytochrome P450 2D6, 27100 nM; in series [5], 24700 nM; on Cytochrome P450 3A4 it was 17900 nM. Moreover, the logD in [3] amounted to 0.8. Also, in series [7], the pKa came to 9.4. Besides, the half-life is more than 2 h in [4], 5.7 h in [8], 5.7 h in [11] and 0.583 h in series [13]. Further, the Activity entry on Cytochrome P450 1A2, at Cytochrome P450 2C9 and on Cytochrome P450 2C19 was “Not Active” each time. Further, in series [9], the clearance turned out to be 1.1 mL/min/kg. The same molecule displayed a Vd in series [10] of 0.5 L/kg. The molecule also had a bioavailability in [12] of 91%. In the series “in vitro”, the hepatocyte CLint is 2.7 µL/min/1e6 cells.
For the molecule `O=C(C1CC1)N(Cc1ccc(Cl)cc1Cl)[C@H]1CCNC1`, the IC50 in [1] was found to be 38 nM; in series [6], 25 nM.
Consider `CC(C)C(=O)N(Cc1ccccc1Cl)[C@H]1CCNC1`, for which the figures for the IC50 in [1] and in series [6] were 91 nM and 114 nM, respectively.
The corresponding values for `O=C(C1CCOCC1)N(Cc1cccc(Cl)c1Cl)[C@H]1CCNC1` are 123 nM and 300 nM.
With `CC(C)C(=O)N(Cc1cccc(Cl)c1Cl)[C@@H]1CCNC1`, the IC50 in series [1] is 5 nM; in series [2], 1120 nM.
As for `CCCC(=O)N(Cc1ccc(Cl)cc1Cl)[C@H]1CCNC1`, the values for the IC50 in series [1] and in series [6] were 72 nM and 31 nM, respectively.
For the molecule `O=C(C1CCC1)N(Cc1ccc(Cl)cc1Cl)[C@H]1CCNC1`, the values for the IC50 in [1] and in series [6] were 41 nM and 64 nM, respectively.
The corresponding values for `CC(C)CC(=O)N(Cc1ccc(Cl)cc1Cl)[C@H]1CCNC1` are 93 nM and 31 nM.
Regarding `CC(C)C(=O)N(Cc1ccc(C(F)(F)F)cc1F)[C@H]1CCNC1`, the IC50 in series [1] was 24 nM; in series [6], more than 400 nM.

(Values after ChEMBL document CHEMBL1155868, “N-Benzyl-N-(pyrrolidin-3-yl)carboxamides as a new class of selective dual serotonin/noradrenaline reuptake inhibitors” (Bioorg Med Chem Lett, 2008).)
